System: NRF2 dependent genes in HaCaT
Assay: Expression of NRF2 dependent genes in keratinocytes (real time PCR)
Assay type: cell-based, human
Details: 6 h
[1] = incubated before DNFB, vs DNFB alone
[2] = incubated before MI, vs MI alone

Experimental: HaCaT is cultured with Dulbecco's Modified Eagle's Medium (DMEM) (Sigma-Aldrich, St. Louis, MO, USA), supplemented with 10% (v/v) heat-inactivated fetal bovine serum (FBS), 1% (v/v) antibiotic solution (100 U/mL penicillin, 100 μg/mL streptomycin) (Gibco, Carlsbad, CA, USA), 3.7 g/L sodium bicarbonate and 1 mM sodium pyruvate (Sigma-Aldrich, St. Louis, MO, USA).
In an embodiment, HaCaT cells are seeded in 6-well plates at a density of 6×10^5 cells/well and allowed to adhere for 24 h. After that, cells are incubated for 24 h with exposure medium (control) or treated with 10 mM of NAC, 10 mM of LYS, 8 μM of DNFB, 100 μM of MI, or 10 mM+DNFB, 10 mM LYS+DNFB and 10 mM+MI, 10 mM LYS+MI for 6 h or 24 h.
In an embodiment, total RNA (ribonucleic acid) is extracted from HaCaT treated cells, as previously described by our group [37], with NZYol reagent, according to the manufacturer's instructions and its concentration is determined by OD260 measurement using a NanoDrop spectrophotometer (Thermo Scientific, Wilmington, DE, USA). Samples are stored in RNA Storage Solution at −80° C. until use. Total RNA (1 g) is reverse-transcribed using the iScript Select cDNA Synthesis Kit, and real-time reverse transcriptase-polymerase chain reaction (RT-PCR) reactions are performed, in duplicate for each sample, on a Bio-Rad MyCycler iQ5 (Hercules, CA, USA), as previously described by our group [38].
In an embodiment, after amplification, a threshold is set for each gene and Ct values are calculated for all samples. Gene expression changes are analyzed using Bio-Rad CFX Maestro 1.1 system software (Hercules, CA, USA). The results are normalized using Hprt-1 as the reference gene. Primer sequences are designed using Beacon Designer software version 7.7 (Premier Biosoft International, Palo Alto, CA, USA) and thoroughly tested.

Compound	HMOX1 expression [1]	NQO1 expression [1]	HMOX1 expression [2]	TRX1 expression [2]
NCCCC[C@H](N)C(=O)O [LYS, lysine]	significantly decrease	significantly decrease		
CC(=O)N[C@@H](CS)C(=O)O [NAC, n-acetyl cysteine]	significantly decrease		significantly decrease	significantly decrease
